Results published in PubChem BioAssay AID1508612.

Experiment: passive permeability, PAMPA, ADME assay (AID 1508612)
Conditions: pH 7.4, 30.0 min, 50.0 µM

Structure (SMILES)	Papp
NCC(=O)Nc1ccc(Cl)cc1C(=O)c1ccc[nH]1	> 1000 ×10⁻⁶ cm/s
Cc1ccccc1C(=O)N1CCc2cc(-c3nc(NC(=O)Cc4ccc5c(c4)OCCO5)sc3C)ccc21	761 ×10⁻⁶ cm/s
NC(=O)C1CCN(c2nc(-c3ccc(F)cc3)cs2)CC1	198 ×10⁻⁶ cm/s
Cc1ccc2nc(-c3cc(NC(=O)c4ccc5c(c4)OCCO5)ccc3Cl)oc2c1	144 ×10⁻⁶ cm/s
NC[C@H](O)c1ccc(O)c(O)c1	5.7 ×10⁻⁶ cm/s
CC(=O)c1c(C)[nH]c(C(=O)Nc2cccc(S(=O)(=O)N3CCOCC3)c2)c1C	475 ×10⁻⁶ cm/s
O=C(NC1CC1)c1nc(-c2cccnc2)c2cnccn12	31.8 ×10⁻⁶ cm/s
CC(C)NC(=O)c1nc(-c2ccc(Cl)nc2)c2ccccn12	> 1000 ×10⁻⁶ cm/s
CC(=O)c1c(C)c(C(=O)Nc2cccc([S+](=O)([O-])N3CCCCCC3)c2)n(C)c1C	> 1000 ×10⁻⁶ cm/s
N#Cc1ccccc1CSc1nc2ncc(Br)cc2[nH]1	415 ×10⁻⁶ cm/s
Cc1ccc(-c2cc(C(=O)Nc3ccc(S(=O)(=O)N(C)Cc4nccs4)cc3)c3ccccc3n2)cc1C	< 1 ×10⁻⁶ cm/s
CCCCc1ccc(NC(=O)c2ccc3c(c2)N(S(C)(=O)=O)CC3)cc1	706 ×10⁻⁶ cm/s
COc1ccc(CCNC(=O)Cn2c(=O)c3cccn3c3ccc(F)cc32)cc1OC	442 ×10⁻⁶ cm/s
COc1c(Cl)cc2c([nH]c3cnccc32)c1NC(=O)c1cccnc1C	440 ×10⁻⁶ cm/s
COc1ccc(NC(=O)c2[nH]c(C)c(C(C)=O)c2C)cc1	377 ×10⁻⁶ cm/s
COc1ccc(OC)c(-n2c3c(cc(-c4nc(-c5ccc(Cl)cc5)cs4)c2=O)C(=O)CC(C)(C)C3)c1	216 ×10⁻⁶ cm/s
O=c1cc(-c2ccccc2)oc2cc(O)cc(O)c12	452 ×10⁻⁶ cm/s
NC(=O)c1ccc(-c2nc3c([nH]2)CN(C(=O)CN2CCOCC2)CC3)cc1	2.6 ×10⁻⁶ cm/s
OC1(c2ccc(Cl)cc2)CCN(Cc2c[nH]c3ccccc23)CC1	> 1000 ×10⁻⁶ cm/s
O=S(=O)(Nc1ccc(C2CCNCC2)cc1)c1ccc(NCc2cccc(Cl)c2O)cc1	3.22 ×10⁻⁶ cm/s
CC(=O)c1c(C)[nH]c(C(=O)Nc2cccc([S+](=O)([O-])Nc3c(C)cccc3C)c2)c1C	117 ×10⁻⁶ cm/s

Structure (SMILES)	Papp
CCCCn1cnc2cc(NCc3ccc(OCC)cc3)ccc21	> 1000 ×10⁻⁶ cm/s
O=C(O)C1CCN(c2ncc(-c3ccc4c(c3)OCCCO4)s2)CC1	10.1 ×10⁻⁶ cm/s
Nc1ccc(S(=O)(=O)Nc2cnccc2C(=O)Nc2nc(-c3ccccc3)cs2)cc1	101 ×10⁻⁶ cm/s
O=C(c1cnc(N2CCCCC2)c2ccccc12)N1CCN(c2ccccn2)CC1	> 1000 ×10⁻⁶ cm/s
COc1ccc2nc(C)cc(Nc3ccc(Cl)c(Cl)c3)c2c1	> 1000 ×10⁻⁶ cm/s
CC(=O)NC(c1cccs1)c1cc(Br)c2cccnc2c1O (configuration not stated)	73 ×10⁻⁶ cm/s
CCOc1ccc(N2CC(c3nc(-c4ccccn4)no3)CC2=O)cc1 (configuration not stated)	297 ×10⁻⁶ cm/s
CC1CCc2ccc(F)cc2N1S(=O)(=O)c1cccs1 (configuration not stated)	795 ×10⁻⁶ cm/s
Cc1cc(-c2nnc3n2CCCCC3)c(C)n1-c1ccc([N+](=O)[O-])cc1	20.8 ×10⁻⁶ cm/s
CCc1cccc(CC)c1-n1c(C=C(C)C)c(C(=O)N2CCNCC2)cc(-c2nc(-c3ccc(C(F)(F)F)cc3)cs2)c1=O	33.8 ×10⁻⁶ cm/s
Nc1cc(-c2nc(Nc3ccc(F)c(F)c3)c3ccccc3n2)ccn1	> 1000 ×10⁻⁶ cm/s
CC1=C(C(=O)Nc2nncs2)C2(CCCC2)N=C(Nc2nc3ccccc3o2)N1	< 1 ×10⁻⁶ cm/s
Cc1ccc(OCCn2c(CCNC(=O)c3ccc(Cl)cc3)nc3ccccc32)cc1	754 ×10⁻⁶ cm/s
COc1c(C)c2c(c(O)c1C/C=C(\C)CCC(=O)OCCN1CCOCC1)C(=O)OC2	613 ×10⁻⁶ cm/s
Cc1ccc2nc(NC3=NC(c4[nH]ncc4Cl)C4=C(CCCC4=O)N3)oc2c1 (configuration not stated)	997 ×10⁻⁶ cm/s
CC[C@H](NC(=O)c1c(O)c(-c2ccccc2)nc2ccccc12)c1ccccc1	298 ×10⁻⁶ cm/s
COC(=O)c1ccc(NC(=O)c2nc3ccccc3n(C)c2=O)cc1	350 ×10⁻⁶ cm/s
COc1ccc(-c2csc(CCn3nc(C)c4c(C(F)(F)F)cc(=O)[nH]c43)n2)cc1	825 ×10⁻⁶ cm/s
Cc1cc(C)c(C(=O)Nc2cccc([S+](=O)([O-])N3CCCC3)c2)[nH]1	948 ×10⁻⁶ cm/s
CCCN1C(CC(C)C)=NS(=O)(=O)c2cc(NC(=O)c3ccco3)ccc21	427 ×10⁻⁶ cm/s
O=C1CCCC2=C1C(c1[nH]ncc1Cl)N=C(Nc1nc3cc([S+](=O)([O-])N4CCCC4)ccc3o1)N2 (configuration not stated)	47 ×10⁻⁶ cm/s
